Structures are written as SMILES.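 Grown in 96-well plates, cells were treated for 48 hours with each compound at five concentrations. Insufficient inhibition: endpoint recorded as highest concentration tested. GI50 marks 50% less growth.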 Activity calls are given as the source filed them. Cut-off read from the data, not from the text of the source: active = GI50 up to about 1.1 µM and inactive = higher. A value given as a limit tells only on which side of the number the result lay.

Some test systems named below: COLO 205; ACHN; K562; HCT-116; RPMI-8226; SW-620; T47D; MDA-MB-231; LOX IMVI; NCI-H460; HCT-15; MOLT-4; M14; HCC 2998; OVCAR-5; OVCAR-3; MDA-MB-435; NCI-H226; SF-295; SF-539.
Assay in all cases: NCI-60 cell line screen, 48 h

For `CO/N=C(\C(=O)Nn1cn[n+](CC(=O)[O-])c1)c1csc(N)n1`, the GI50 in the experiment with COLO 205, with ACHN, with K562, with HCT-116, in the experiment on RPMI-8226 and with SW-620 was > 10 µM (inactive) in each case. For the same compound, the GI50 in the experiment on T47D was > 10 µM (inactive); in the experiment with MDA-MB-231, > 10 µM (inactive); in the experiment on LOX IMVI, > 10 µM (inactive); in the experiment on NCI-H460, > 10 µM (inactive); in the experiment with HCT-15, over 10 µM; with MOLT-4, > 10 µM (inactive). Besides, the GI50 in the experiment with M14 and with HCC 2998 was > 10 µM (inactive) throughout.
Regarding `Cc1ccnc(NS(=O)(=O)c2ccc(N=[N+]=[N-])cc2)n1`, the GI50 in the experiment on COLO 205, with ACHN, in the experiment with OVCAR-5, with OVCAR-3, in the experiment on HCT-116 and in the experiment on RPMI-8226 was > 100 µM (inactive) in each case. Besides, the GI50 with MDA-MB-435, in the experiment on SW-620, with NCI-H226, in the experiment with T47D, with SF-295 and with LOX IMVI was > 100 µM (inactive) throughout. Besides, the GI50 in the experiment with NCI-H460 is > 100 µM (inactive); in the experiment on HCT-15, over 100 µM; in the experiment with M14, > 100 µM (inactive); in the experiment on SF-539, > 100 µM (inactive).
`CCO[C@H]1C[C@@H](c2ccccc2)[C@]2(C)C[C@H](C(=O)OC)ON2O1`: the GI50 with COLO 205, in the experiment with ACHN, with OVCAR-5, in the experiment with OVCAR-3, in the experiment with K562 and with HCT-116 was > 100 µM (inactive) throughout. Besides, the GI50 in the experiment with RPMI-8226, in the experiment on MDA-MB-435, with SW-620, with NCI-H226, in the experiment on T47D and in the experiment on SF-295 was > 100 µM (inactive) in each case. The GI50 with MDA-MB-231 was > 100 µM (inactive); with LOX IMVI, > 100 µM (inactive); in the experiment with HCT-15 it was over 100 µM; with MOLT-4, > 100 µM (inactive); in the experiment with M14, > 100 µM (inactive); in the experiment on SF-539, > 100 µM (inactive).
As to `O=C(O)CN1CCN2CCOCCOCCN(CC1)CCN(CC(=O)O)CC2`, the GI50 in the experiment with COLO 205, with ACHN, in the experiment with OVCAR-5, in the experiment on OVCAR-3, in the experiment on K562 and with HCT-116 was > 100 µM (inactive) in each case. In addition, the GI50 in the experiment on RPMI-8226, with MDA-MB-435, in the experiment on SW-620, with NCI-H226, in the experiment on T47D and in the experiment on SF-295 was > 100 µM (inactive) in each case. Moreover, the GI50 was > 100 µM (inactive) with MDA-MB-231; > 100 µM (inactive) in the experiment on LOX IMVI; > 100 µM (inactive) in the experiment with NCI-H460; over 100 µM with HCT-15; > 100 µM (inactive) in the experiment on M14; > 100 µM (inactive) in the experiment on SF-539.
For the compound `Cc1cc2ncc3c(=O)n(NS(=O)(=O)c4ccc(N)cc4)ccc3n2n1`, the GI50 in the experiment with COLO 205, with ACHN, in the experiment on OVCAR-5, with OVCAR-3, with HCT-116 and in the experiment on MDA-MB-435 was > 100 µM (inactive) throughout. Besides, the GI50 with SW-620, in the experiment on NCI-H226, in the experiment on T47D, in the experiment with SF-295, in the experiment on MDA-MB-231 and in the experiment on LOX IMVI was > 100 µM (inactive) in each case. In addition, the GI50 is > 100 µM (inactive) in the experiment on NCI-H460; over 100 µM with HCT-15; > 100 µM (inactive) in the experiment on MOLT-4; > 100 µM (inactive) in the experiment on M14; > 100 µM (inactive) in the experiment with SF-539.
As for `CC(=O)Oc1ccc2[nH]c3c(C)c4cccc-4ccc3c2c1`, the GI50 with ACHN is 1.79 µM (inactive); in the experiment with OVCAR-5, 2.02 µM (inactive); in the experiment with OVCAR-3, 1.62 µM (inactive); in the experiment with K562, 3.79 µM (inactive); in the experiment on HCT-116 it was 2.07 µM (inactive); in the experiment on RPMI-8226, 3.03 µM (inactive). Further, the GI50 was 2 µM (inactive) with MDA-MB-435; 3.7 µM (inactive) in the experiment on SW-620; 1.38 µM (inactive) in the experiment on NCI-H226; 2.43 µM (inactive) in the experiment on T47D; 2.02 µM (inactive) in the experiment on SF-295; 2.18 µM (inactive) in the experiment with LOX IMVI. The GI50 in the experiment on NCI-H460 is 2.94 µM (inactive); in the experiment with HCT-15, 2.24 µM; with MOLT-4, 3.13 µM (inactive); in the experiment with M14, 2.17 µM (inactive); in the experiment on HCC 2998 it was 2.18 µM (inactive).
Take `Cc1cccc(Cn2c3c(c4cc(O)ccc42)C(=O)c2ccccc2C3=O)c1`: the GI50 with COLO 205 is > 78.2 µM (inactive); with ACHN it was 13.3 µM (inactive); in the experiment on OVCAR-3, > 31.6 µM (inactive); with K562, > 100 µM (inactive); with HCT-116 it was 3.05 µM (inactive); with RPMI-8226, 5.92 µM (inactive). In addition, the GI50 in the experiment with MDA-MB-435 was > 80.9 µM (inactive); in the experiment on SW-620 it was 31 µM (inactive); in the experiment on NCI-H226 it was 15.7 µM (inactive); in the experiment with T47D, > 100 µM (inactive); in the experiment with SF-295 it was 3.89 µM (inactive); in the experiment on MDA-MB-231 it was 6.35 µM (inactive). The GI50 in the experiment with LOX IMVI is 12.6 µM (inactive); with NCI-H460, 25.6 µM (inactive); in the experiment on HCT-15 it was 54.7 µM; in the experiment with MOLT-4 it was > 83.6 µM (inactive); in the experiment on M14 it was > 100 µM (inactive); with SF-539, 5.7 µM (inactive).
Regarding `O=[N+]([O-])C(=C(Nc1ccccc1)Nc1ccccc1)/C(Cl)=C(\Cl)Br`, the GI50 is > 10 µM (inactive) in the experiment with COLO 205; 11.4 µM (inactive) with ACHN; 10.6 µM (inactive) with OVCAR-5; 5.18 µM (inactive) with OVCAR-3; 2.92 µM (inactive) in the experiment with K562; 6.05 µM (inactive) in the experiment on HCT-116. The GI50 in the experiment on RPMI-8226 is 3.61 µM (inactive); with SW-620 it was 6.82 µM (inactive); with NCI-H226 it was 0.671 µM (active); in the experiment with T47D it was 12.7 µM (inactive); with SF-295, 14.8 µM (inactive); in the experiment on MDA-MB-231 it was 15.6 µM (inactive). Also, the GI50 with LOX IMVI is 3.27 µM (inactive); in the experiment with NCI-H460, 21.3 µM (inactive); with HCT-15 it was 11.9 µM; in the experiment with MOLT-4, 3.1 µM (inactive); in the experiment on M14 it was 4.89 µM (inactive); in the experiment with SF-539, 22 µM (inactive). Besides, the GI50 in the experiment on HCC 2998 was 17.1 µM (inactive).
With `COC(=O)[C@@]12CCCC(=O)[C@@H]1[C@H]1CCC[C@H]12`, the GI50 in the experiment with COLO 205, in the experiment with ACHN, in the experiment with OVCAR-5, in the experiment on OVCAR-3, in the experiment on K562 and in the experiment on HCT-116 was > 100 µM (inactive) in each case. The GI50 with RPMI-8226, in the experiment with MDA-MB-435, in the experiment on SW-620, in the experiment on NCI-H226, with SF-295 and with MDA-MB-231 was > 100 µM (inactive) each time. Moreover, the GI50 with LOX IMVI was > 100 µM (inactive); in the experiment on NCI-H460 it was > 100 µM (inactive); in the experiment with HCT-15, over 100 µM; with MOLT-4, > 100 µM (inactive); in the experiment with M14, > 100 µM (inactive); with SF-539 it was > 100 µM (inactive). In addition, in the experiment on HCC 2998, the GI50 was > 100 µM (inactive).
Regarding `O=C1C2SC34c5c2c2ccccc2n5CCC3CCCN14` (configuration not stated), the GI50 in the experiment on COLO 205 was > 100 µM (inactive); with ACHN it was > 100 µM (inactive); with OVCAR-5 it was > 100 µM (inactive); with OVCAR-3, 65 µM (inactive); with K562 it was > 100 µM (inactive); with HCT-116, > 100 µM (inactive). Also, the GI50 with RPMI-8226 is > 100 µM (inactive); in the experiment on MDA-MB-435, 89.1 µM (inactive); with SW-620 it was > 100 µM (inactive); with NCI-H226, > 100 µM (inactive); in the experiment on T47D, 91.2 µM (inactive); with SF-295 it was 55.2 µM (inactive). In addition, the GI50 in the experiment with MDA-MB-231 is 39.6 µM (inactive); in the experiment with LOX IMVI it was > 100 µM (inactive); in the experiment with HCT-15 it was over 100 µM; with MOLT-4, > 100 µM (inactive); in the experiment on M14 it was > 100 µM (inactive); in the experiment on SF-539 it was > 100 µM (inactive).
Turning to `CS(=O)(=O)Nc1ccc(N2Cc3c[nH]c4ccc5nccc2c5c34)cc1`, the GI50 in the experiment on COLO 205 was 11.9 µM (inactive); in the experiment with ACHN, 28.6 µM (inactive); in the experiment on OVCAR-5, 22.8 µM (inactive); in the experiment on OVCAR-3 it was 9.98 µM (inactive); with K562, 11.4 µM (inactive); in the experiment on HCT-116, 9.14 µM (inactive). The GI50 with RPMI-8226 is 20.3 µM (inactive); with MDA-MB-435, 15.5 µM (inactive); with SW-620 it was 15 µM (inactive); in the experiment on NCI-H226, 15.4 µM (inactive); in the experiment with T47D, 3.5 µM (inactive); in the experiment on SF-295 it was 27.7 µM (inactive). Also, the GI50 with MDA-MB-231 was 13.6 µM (inactive); in the experiment with LOX IMVI it was 12.2 µM (inactive); in the experiment with NCI-H460 it was 19.4 µM (inactive); with HCT-15, over 100 µM; in the experiment on MOLT-4, 2.72 µM (inactive); in the experiment on M14 it was 15.5 µM (inactive).

Source of the values: ChEMBL document CHEMBL1201862, “PubChem BioAssay data set” (2004).
